# Source: ChEMBL document CHEMBL5678812, “Inhibitors of p21-activated kinases (PAKs)” (J Med Chem, 2015)
# Key:
# [1] = target: Cyclin-dependent kinase 1/cyclin B1 (Homo sapiens) (UniProt P06493+P14635); assay: Inhibition of CDK1/cyclinB (unknown origin) at 0.1 uM relative to control; assay type: protein-complex assay
# [2] = target: Glycogen synthase kinase-3 alpha (Homo sapiens) (UniProt P49840); assay: Inhibition of GSK3alpha (unknown origin) at 0.1 uM relative to control
# [3] = target: Fibroblast growth factor receptor 2 (Homo sapiens) (UniProt P21802); assay: Inhibition of FGFR2 (unknown origin) at 0.1 uM relative to control
# [4] = target: Tyrosine-protein kinase JAK3 (Homo sapiens) (UniProt P52333); assay: Inhibition of JAK3 (unknown origin) at 0.1 uM relative to control
# [5] = target: Serine/threonine-protein kinase TBK1 (Homo sapiens) (UniProt Q9UHD2); assay: Inhibition of TBK1 (unknown origin) at 0.1 uM relative to control
# [6] = target: Ephrin type-B receptor 4 (Homo sapiens) (UniProt P54760); assay: Inhibition of EphB4 (unknown origin) at 0.1 uM relative to control
# [7] = target: Dual specificity tyrosine-phosphorylation-regulated kinase 3 (Homo sapiens) (UniProt O43781); assay: Inhibition of DYRK3 (unknown origin) at 0.1 uM relative to control
# [8] = target: Serine/threonine-protein kinase PAK 3 (Homo sapiens, UniProt O75914); assay: Inhibition of PAK3 (unknown origin) at 0.1 uM relative to control
# [9] = target: Ribosomal protein S6 kinase alpha-3 (Homo sapiens) (UniProt P51812); assay: Inhibition of Rsk2 (unknown origin) at 0.1 uM relative to control
# [10] = target: Dual specificity mitogen-activated protein kinase kinase 1 (Homo sapiens) (UniProt Q02750); assay: Inhibition of MEK1 (unknown origin) at 0.1 uM relative to control
# Sequence of Dual specificity mitogen-activated protein kinase kinase 1 (Homo sapiens) (Q02750 whole entry): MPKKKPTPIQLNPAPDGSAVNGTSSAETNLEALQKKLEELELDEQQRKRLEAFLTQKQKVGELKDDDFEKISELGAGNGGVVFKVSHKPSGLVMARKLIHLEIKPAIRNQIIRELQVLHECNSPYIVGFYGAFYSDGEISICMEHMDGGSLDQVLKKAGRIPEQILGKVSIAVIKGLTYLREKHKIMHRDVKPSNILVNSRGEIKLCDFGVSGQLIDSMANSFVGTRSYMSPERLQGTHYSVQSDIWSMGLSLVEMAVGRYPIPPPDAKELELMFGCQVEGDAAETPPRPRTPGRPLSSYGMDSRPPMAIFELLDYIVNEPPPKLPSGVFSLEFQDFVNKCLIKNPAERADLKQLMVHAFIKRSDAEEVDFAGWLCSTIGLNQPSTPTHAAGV
# [11] = target: Mitogen-activated protein kinase 8 (Homo sapiens) (UniProt P45983); assay: Inhibition of JNK1alpha1 (unknown origin) at 0.1 uM relative to control
# [12] = target: Serine/threonine-protein kinase PAK 2 (Homo sapiens, UniProt Q13177); assay: Inhibition of PAK2 (unknown origin) at 0.1 uM relative to control
# [13] = target: Platelet-derived growth factor receptor beta (Homo sapiens) (UniProt P09619); assay: Inhibition of PDGFRbeta (unknown origin) at 0.1 uM relative to control
# [14] = target: Tyrosine-protein kinase ABL1 (Homo sapiens) (UniProt P00519); assay: Inhibition of Abl (unknown origin) at 0.1 uM relative to control
# Sequence of Tyrosine-protein kinase ABL1 (Homo sapiens) (P00519 whole entry): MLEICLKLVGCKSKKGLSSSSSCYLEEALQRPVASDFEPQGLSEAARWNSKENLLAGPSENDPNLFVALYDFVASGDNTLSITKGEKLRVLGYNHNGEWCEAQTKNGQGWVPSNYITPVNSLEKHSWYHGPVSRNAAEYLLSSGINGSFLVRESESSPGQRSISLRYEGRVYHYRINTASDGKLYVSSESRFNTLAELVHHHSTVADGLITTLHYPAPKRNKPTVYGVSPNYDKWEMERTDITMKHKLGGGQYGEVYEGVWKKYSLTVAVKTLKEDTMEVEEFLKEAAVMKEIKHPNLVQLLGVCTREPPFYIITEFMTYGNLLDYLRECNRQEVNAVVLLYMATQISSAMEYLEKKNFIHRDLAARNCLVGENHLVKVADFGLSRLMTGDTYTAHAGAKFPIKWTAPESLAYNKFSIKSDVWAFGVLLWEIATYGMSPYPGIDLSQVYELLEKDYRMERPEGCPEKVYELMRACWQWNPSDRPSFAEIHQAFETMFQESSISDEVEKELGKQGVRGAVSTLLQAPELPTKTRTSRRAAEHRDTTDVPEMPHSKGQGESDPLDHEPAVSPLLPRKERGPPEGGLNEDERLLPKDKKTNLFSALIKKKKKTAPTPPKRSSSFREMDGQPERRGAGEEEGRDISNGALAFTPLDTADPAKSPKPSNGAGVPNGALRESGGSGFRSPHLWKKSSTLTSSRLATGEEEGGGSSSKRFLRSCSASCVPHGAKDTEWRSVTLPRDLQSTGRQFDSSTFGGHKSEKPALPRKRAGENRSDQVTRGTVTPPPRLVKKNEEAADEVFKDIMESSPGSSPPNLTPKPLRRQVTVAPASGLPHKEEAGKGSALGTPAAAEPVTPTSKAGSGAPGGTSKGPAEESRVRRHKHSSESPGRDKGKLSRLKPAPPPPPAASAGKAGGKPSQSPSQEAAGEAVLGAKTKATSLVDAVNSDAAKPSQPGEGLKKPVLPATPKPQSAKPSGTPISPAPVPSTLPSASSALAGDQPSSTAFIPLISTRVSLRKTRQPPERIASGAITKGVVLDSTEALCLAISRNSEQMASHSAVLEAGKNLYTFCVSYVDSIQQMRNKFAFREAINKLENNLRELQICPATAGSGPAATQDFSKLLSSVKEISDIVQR
# [15] = target: Insulin-like growth factor 1 receptor (Homo sapiens) (UniProt P08069); assay: Inhibition of IGF1R (unknown origin) at 0.1 uM relative to control
# [16] = target: Fibroblast growth factor receptor 1 (Homo sapiens) (UniProt P11362); assay: Inhibition of FGFR1 (unknown origin) at 0.1 uM relative to control
# Sequence of Fibroblast growth factor receptor 1 (Homo sapiens) (P11362 22-822 limits assumed): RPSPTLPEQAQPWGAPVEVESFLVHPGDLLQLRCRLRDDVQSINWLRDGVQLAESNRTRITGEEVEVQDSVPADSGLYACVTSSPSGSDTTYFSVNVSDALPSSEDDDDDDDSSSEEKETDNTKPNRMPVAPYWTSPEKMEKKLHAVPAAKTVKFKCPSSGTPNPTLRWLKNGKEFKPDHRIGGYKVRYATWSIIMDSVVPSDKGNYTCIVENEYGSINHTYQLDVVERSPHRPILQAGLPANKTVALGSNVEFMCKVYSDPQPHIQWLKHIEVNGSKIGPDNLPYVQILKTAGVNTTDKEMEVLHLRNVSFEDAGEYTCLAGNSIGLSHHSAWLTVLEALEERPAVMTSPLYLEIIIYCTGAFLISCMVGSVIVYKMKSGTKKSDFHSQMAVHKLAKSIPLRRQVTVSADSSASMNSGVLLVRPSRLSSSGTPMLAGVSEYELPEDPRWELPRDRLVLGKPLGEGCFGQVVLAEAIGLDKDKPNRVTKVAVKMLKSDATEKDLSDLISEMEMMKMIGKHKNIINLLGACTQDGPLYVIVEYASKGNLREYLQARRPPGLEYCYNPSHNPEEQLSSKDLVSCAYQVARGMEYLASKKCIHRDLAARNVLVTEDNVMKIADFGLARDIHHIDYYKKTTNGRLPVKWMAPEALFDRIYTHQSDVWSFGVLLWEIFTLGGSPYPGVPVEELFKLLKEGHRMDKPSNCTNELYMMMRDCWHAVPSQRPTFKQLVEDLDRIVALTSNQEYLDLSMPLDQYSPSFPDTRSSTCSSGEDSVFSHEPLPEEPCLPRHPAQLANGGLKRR
# [17] = target: Mast/stem cell growth factor receptor Kit (Homo sapiens) (UniProt P10721); assay: Inhibition of Kit (unknown origin) at 0.1 uM relative to control
# Homo sapiens [18] = species: Homo sapiens; assay: Inhibition of p70S6K (unknown origin) at 0.1 uM relative to control
# [19] = target: Serine/threonine-protein kinase Nek1 (Homo sapiens) (UniProt Q96PY6); assay: Inhibition of NEK1 (unknown origin) at 0.1 uM relative to control
# [20] = target: Misshapen-like kinase 1 (Homo sapiens) (UniProt Q8N4C8); assay: Inhibition of Mink1 (unknown origin) at 0.1 uM relative to control
# [21] = target: Tyrosine-protein kinase SYK (Homo sapiens) (UniProt P43405); assay: Inhibition of Syk (unknown origin) at 0.1 uM relative to control
# [22] = target: Casein kinase I isoform gamma-2 (Homo sapiens) (UniProt P78368); assay: Inhibition of CK1gamma2 (unknown origin) at 0.1 uM relative to control
# [23] = target: Homeodomain-interacting protein kinase 4 (Homo sapiens) (UniProt Q8NE63); assay: Inhibition of HIPK4 (unknown origin) at 0.1 uM relative to control
# [24] = target: Proto-oncogene tyrosine-protein kinase Src (Homo sapiens) (UniProt P12931); assay: Inhibition of Src (unknown origin) at 0.1 uM relative to control
# [25] = target: Serine/threonine-protein kinase PAK 4 (Homo sapiens, UniProt O96013); assay: Inhibition of PAK4 (unknown origin) at 0.1 uM relative to control
# [26] = target: Serine/threonine-protein kinase Sgk3 (Homo sapiens) (UniProt Q96BR1); assay: Inhibition of SGK3 (unknown origin) at 0.1 uM relative to control
# [27] = target: Proto-oncogene tyrosine-protein kinase receptor Ret (Homo sapiens) (UniProt P07949); assay: Inhibition of Ret (unknown origin) at 0.1 uM relative to control
# Sequence of Proto-oncogene tyrosine-protein kinase receptor Ret (Homo sapiens) (P07949 whole entry): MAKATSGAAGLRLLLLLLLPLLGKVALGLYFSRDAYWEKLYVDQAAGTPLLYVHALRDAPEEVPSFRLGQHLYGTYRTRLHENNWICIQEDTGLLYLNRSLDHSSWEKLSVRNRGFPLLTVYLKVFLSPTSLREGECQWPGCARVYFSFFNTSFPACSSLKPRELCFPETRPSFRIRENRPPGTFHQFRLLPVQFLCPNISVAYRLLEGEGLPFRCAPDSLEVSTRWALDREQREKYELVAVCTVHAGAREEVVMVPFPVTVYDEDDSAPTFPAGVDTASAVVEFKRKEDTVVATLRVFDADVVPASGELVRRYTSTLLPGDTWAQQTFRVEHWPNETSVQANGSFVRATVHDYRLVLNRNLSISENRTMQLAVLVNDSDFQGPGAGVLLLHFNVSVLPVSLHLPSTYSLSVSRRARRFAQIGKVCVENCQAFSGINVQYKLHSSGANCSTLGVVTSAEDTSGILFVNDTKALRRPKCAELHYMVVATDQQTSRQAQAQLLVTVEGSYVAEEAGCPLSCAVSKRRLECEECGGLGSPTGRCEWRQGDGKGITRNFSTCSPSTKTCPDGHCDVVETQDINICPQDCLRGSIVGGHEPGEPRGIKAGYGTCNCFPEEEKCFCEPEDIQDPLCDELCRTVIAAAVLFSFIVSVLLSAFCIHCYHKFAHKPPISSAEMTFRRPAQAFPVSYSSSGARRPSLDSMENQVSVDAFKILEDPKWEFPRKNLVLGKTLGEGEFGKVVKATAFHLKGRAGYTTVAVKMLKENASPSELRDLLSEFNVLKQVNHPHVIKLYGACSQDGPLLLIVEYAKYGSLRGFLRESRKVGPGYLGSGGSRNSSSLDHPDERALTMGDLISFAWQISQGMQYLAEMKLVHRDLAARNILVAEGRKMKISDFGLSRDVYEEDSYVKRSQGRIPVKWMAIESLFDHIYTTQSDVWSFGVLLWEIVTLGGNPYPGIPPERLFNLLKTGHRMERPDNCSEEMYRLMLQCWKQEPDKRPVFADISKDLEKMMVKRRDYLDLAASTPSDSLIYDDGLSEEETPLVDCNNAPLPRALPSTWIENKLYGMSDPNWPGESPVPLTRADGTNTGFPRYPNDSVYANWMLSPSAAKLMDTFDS
# [28] = target: Myosin light chain kinase 2, skeletal/cardiac muscle (Homo sapiens) (UniProt Q9H1R3); assay: Inhibition of MYLK2 (unknown origin) at 0.1 uM relative to control
# [29] = target: Serine/threonine-protein kinase PAK 5 (Homo sapiens, UniProt Q9P286); assay: Inhibition of PAK5 (unknown origin) at 0.1 uM relative to control
# [30] = target: Serine/threonine-protein kinase TAO1 (Homo sapiens) (UniProt Q7L7X3); assay: Inhibition of TAO1 (unknown origin) at 0.1 uM relative to control
# Sequence of Serine/threonine-protein kinase TAO1 (Homo sapiens) (Q7L7X3 whole entry): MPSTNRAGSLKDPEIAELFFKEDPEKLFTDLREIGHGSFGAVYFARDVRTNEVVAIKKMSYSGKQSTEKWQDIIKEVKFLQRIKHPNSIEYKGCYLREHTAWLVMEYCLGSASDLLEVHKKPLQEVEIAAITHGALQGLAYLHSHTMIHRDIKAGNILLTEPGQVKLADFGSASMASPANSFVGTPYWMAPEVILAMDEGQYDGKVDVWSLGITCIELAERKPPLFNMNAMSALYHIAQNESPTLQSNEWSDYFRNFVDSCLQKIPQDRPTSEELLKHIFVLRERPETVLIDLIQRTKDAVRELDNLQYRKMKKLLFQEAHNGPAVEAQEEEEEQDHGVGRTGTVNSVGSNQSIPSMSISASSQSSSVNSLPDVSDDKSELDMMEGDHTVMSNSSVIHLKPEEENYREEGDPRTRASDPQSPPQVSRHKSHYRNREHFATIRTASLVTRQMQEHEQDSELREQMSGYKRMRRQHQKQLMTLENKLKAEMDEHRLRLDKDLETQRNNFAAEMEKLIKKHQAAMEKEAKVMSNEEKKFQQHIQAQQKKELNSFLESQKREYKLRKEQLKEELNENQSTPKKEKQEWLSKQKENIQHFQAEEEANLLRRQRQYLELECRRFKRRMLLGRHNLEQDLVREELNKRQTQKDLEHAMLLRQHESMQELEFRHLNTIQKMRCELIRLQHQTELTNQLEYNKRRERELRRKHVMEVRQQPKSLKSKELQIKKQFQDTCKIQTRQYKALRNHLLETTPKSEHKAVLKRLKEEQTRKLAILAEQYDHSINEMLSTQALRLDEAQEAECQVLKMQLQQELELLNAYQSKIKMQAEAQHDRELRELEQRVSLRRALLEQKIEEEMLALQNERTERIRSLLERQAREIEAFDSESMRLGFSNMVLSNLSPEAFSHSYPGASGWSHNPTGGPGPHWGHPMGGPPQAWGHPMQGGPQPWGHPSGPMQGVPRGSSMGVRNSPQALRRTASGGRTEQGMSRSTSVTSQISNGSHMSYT
# [31] = target: Tyrosine-protein kinase ZAP-70 (Homo sapiens) (UniProt P43403); assay: Inhibition of ZAP-70 (unknown origin) at 0.1 uM relative to control
# [32] = target: Mitogen-activated protein kinase kinase kinase 8 (Homo sapiens) (UniProt P41279); assay: Inhibition of Cot (unknown origin) at 0.1 uM relative to control
# [33] = target: Tyrosine-protein kinase JAK2 (Homo sapiens) (UniProt O60674); assay: Inhibition of JAK2 (unknown origin) at 0.1 uM relative to control
# [34] = target: Receptor tyrosine-protein kinase erbB-4 (Homo sapiens) (UniProt Q15303); assay: Inhibition of ErbB4 (unknown origin) at 0.1 uM relative to control
# [35] = target: Serine/threonine-protein kinase 24 (Homo sapiens) (UniProt Q9Y6E0); assay: Inhibition of MST3 (unknown origin) at 0.1 uM relative to control
# [36] = target: Serine/threonine-protein kinase PLK3 (Homo sapiens) (UniProt Q9H4B4); assay: Inhibition of PLK3 (unknown origin) at 0.1 uM relative to control
# Sequence of Serine/threonine-protein kinase PLK3 (Homo sapiens) (Q9H4B4 whole entry, looked up): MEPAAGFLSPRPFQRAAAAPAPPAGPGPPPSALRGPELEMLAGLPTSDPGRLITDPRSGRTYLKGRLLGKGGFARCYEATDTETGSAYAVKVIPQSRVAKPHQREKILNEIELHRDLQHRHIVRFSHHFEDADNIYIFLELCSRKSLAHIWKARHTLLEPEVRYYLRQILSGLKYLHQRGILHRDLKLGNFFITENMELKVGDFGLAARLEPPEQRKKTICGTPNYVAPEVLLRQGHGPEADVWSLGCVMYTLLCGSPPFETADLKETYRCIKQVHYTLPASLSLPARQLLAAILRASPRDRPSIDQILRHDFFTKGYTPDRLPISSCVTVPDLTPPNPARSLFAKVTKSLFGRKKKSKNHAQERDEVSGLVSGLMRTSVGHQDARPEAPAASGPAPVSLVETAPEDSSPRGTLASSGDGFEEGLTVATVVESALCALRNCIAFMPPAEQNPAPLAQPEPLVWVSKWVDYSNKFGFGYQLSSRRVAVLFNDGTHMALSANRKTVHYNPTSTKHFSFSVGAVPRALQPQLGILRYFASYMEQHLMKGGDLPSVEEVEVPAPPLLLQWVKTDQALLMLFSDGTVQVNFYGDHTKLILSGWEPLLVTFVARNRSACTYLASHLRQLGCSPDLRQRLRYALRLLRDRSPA
# [37] = target: Serine/threonine-protein kinase B-raf (Homo sapiens) (UniProt P15056); assay: Inhibition of B-Raf (unknown origin) at 0.1 uM relative to control
# [38] = target: Aurora kinase A (Homo sapiens) (UniProt O14965); assay: Inhibition of Aurora A (unknown origin) at 0.1 uM relative to control
# Homo sapiens [39] = species: Homo sapiens; assay: Inhibition of PDGFRalpha V560D mutant (unknown origin) at 0.1 uM relative to control
# [40] = target: Mitogen-activated protein kinase 9 (Homo sapiens) (UniProt P45984); assay: Inhibition of JNK2 (unknown origin) at 0.1 uM relative to control
Compound,inhibition [1],inhibition [2],inhibition [3],inhibition [4],inhibition [5],inhibition [6],inhibition [7],inhibition [8],inhibition [9],inhibition [10],inhibition [11],inhibition [12],inhibition [13],inhibition [14],inhibition [15],inhibition [16],inhibition [17],inhibition (Homo sapiens [18]),inhibition [19],inhibition [20],also measured
COCCNc1nc2ccc(C#CC3(O)CCCCC3)cc2n1-c1ccnc(N)n1,8.1%,9.7%,6.8%,-1.3%,11.6%,5.3%,0.9%,3.3%,11.7%,2.5%,4.1%,14.9%,0.7%,-0.2%,2.9%,-4.5%,-5.5%,7.2%,0.3%,4.4%,inhibition [21]: 4.3%; inhibition [22]: 18.3%; inhibition [23]: 5%; inhibition [24]: 1.9%; inhibition [25]: 89.5%; inhibition [26]: 9.3%; inhibition [27]: 4.4%; inhibition [28]: -1.5%; inhibition [29]: 75.1%; inhibition [30]: -0.2%; inhibition [31]: 2.4%; inhibition [32]: 2.8%; inhibition [33]: 3.4%; inhibition [34]: -1%; inhibition [35]: 5.9%; inhibition [36]: 9.2%; inhibition [37]: 8.2%; inhibition [38]: 10.3%; inhibition (Homo sapiens [39]): -3.5%; inhibition [40]: -1%
CN1CCc2cc(-c3cnc4[nH]cc(C(=O)c5ccccc5Cl)c4c3)ccc2C1,16.5%,40.6%,55.6%,45.4%,4.3%,78.9%,3.8%,92.6%,6%,23.8%,51%,97.7%,96%,99.5%,6.5%,83%,37%,15.3%,1.5%,97%,inhibition [21]: 37.1%; inhibition [22]: -1.5%; inhibition [23]: 18.6%; inhibition [24]: 92.9%; inhibition [25]: 29.2%; inhibition [26]: 19.5%; inhibition [27]: 18.4%; inhibition [28]: 25.5%; inhibition [29]: 28.5%; inhibition [30]: 91.5%; inhibition [31]: 4.5%; inhibition [32]: 19.6%; inhibition [33]: 50.3%; inhibition [34]: 78.9%; inhibition [35]: 70.2%; inhibition [36]: -5.8%; inhibition [37]: 49%; inhibition [38]: 25.9%; inhibition (Homo sapiens [39]): 66.9%; inhibition [40]: 14.8%
